# Test results taken from patent publication US20240101570A1 (AMGEN INC., priority 2020, published 2024).
# Columns and labels:
# HCT116 WT cells = assay: HCT116 WT cell proliferation / viability (CellTiter-Glo, 6 days); assay type: cell-based; details: Homo sapiens, HCT-116, 144 h, HCT116 WT cells, 6 days, CellTiter-Glo; read-out: HCT-116 WT IC50
# Procedure: (§1) HCT116 MTAP null and WT cells were seeded in 96-well tissue culture plates in RPMI 1640 media+10% fetal bovine serum. Plates were incubated overnight at 37° C. and 5% CO2. Cells were then treated with an 8- or 9-point serial dilution of compound, using a top concentration of 1, or 10 μM, 1:3 serial dilution steps and, a DMSO-only control. Cells were incubated in the presence of drug for 6 days. Effects on cell viability were measured with the CellTiter-Glo® Luminescent Cell Viability Assay (Promega) per manufacturer's recommendation. Assay plates were read on an EnVision™ Multilabel Reader using the Ultra-Sensitive luminescence module. IC50 values were calculated with GraphPad Prism v 5.01 using symmetrical sigmoidal dose-response least squares fit with Hill slope fixed to −1 and top constrain to 100% or GeneData Screener using a 4-parameter logistic model to fit dose response curves.
# (§2) Alternatively, compounds could be assayed with a 384 well plate format:
# (§3) Compounds were pre-spotted into 384 well plates with a 22-point serial dilution of compound, using a top concentration of 10 or 50 μM, 1:2 serial dilution steps and, a DMSO-only control. HCT116 MTAP null and WT cells were then seeded as above and after 6 days effects on cell viability were measured with the CellTiter-Glo® Luminescent Cell Viability Assay (Promega). Assay plates were read as above and IC50 values were calculated with GeneData Screener using a 4-parameter logistic model to fit dose response curves. The reported IC50 represents the value where the curve transits 50% of control.
# HCT116 MTAP null cells = assay: HCT116 MTAP null cell proliferation / viability (CellTiter-Glo, 6 days); assay type: cell-based; details: HCT116-MTAP null, 144 h, HCT116 MTAP null cells, 6 days, CellTiter-Glo; read-out: HCT-116 MTAP null IC50
# Procedure: as §1, §2, §3
SMILES,IC50 (HCT116 WT cells) [nM],IC50 (HCT116 MTAP null cells) [nM]
"C[C@H]1OCc2c1c(N)nc1ccc(C(=O)N(Cc3ccc(C(F)(F)F)cn3)c3cnn(C)c3)cc21 [Example 467, (3R)-4-amino-3-methyl-N-(1-methyl-1H-pyrazol-4-yl)-N-((5-(trifluoromethyl)-2-pyridinyl)methyl)-1,3-dihydrofuro[3,4-c]quinoline-8-carboxamide]",332,14
"CC(C)N(Cc1ccc(C2CC2)cn1)C(=O)c1ccc2nc(N)c3c(c2c1)CO[C@@H]3C [Example 377, (3R)-4-amino-N-((5-cyclopropyl-2-pyridinyl)methyl)-3-methyl-N-(2-propanyl)-1,3-dihydrofuro[3,4-c]quinoline-8-carboxamide]",2060,49
"CCN(C(=O)c1cc2c3c(c(N)nc2cc1F)[C@@H](C)OC3)[C@H](C)c1ccc(C(F)(F)F)nn1 [Example 784, (3R)-4-amino-N-ethyl-7-fluoro-3-methyl-N-((1R)-1-(6-(trifluoromethyl)-3-pyridazinyl)ethyl)-1,3-dihydrofuro[3,4-c]quinoline-8-carboxamide]",609,22
"C[C@H](c1ccc(F)cn1)N(C)C(=O)c1ccc2nc(N)c3cnn(C)c3c2c1 (single isomer, unassigned) [Example 604]",24600,238
"Cc1cc2nc(N)c3cnn(C)c3c2cc1C(=O)N(C)[C@H](C)c1ccc(F)cn1 (single isomer, unassigned) [Example 592]",2410,25
"Nc1nc2cc(F)c(C(=O)N(Cc3ccc(C(F)(F)F)cn3)c3cnn(C(F)(F)F)c3)cc2c2c1COC2 [Example 729, 4-amino-7-fluoro-N-(1-(trifluoromethyl)-1H-pyrazol-4-yl)-N-((5-(trifluoromethyl)-2-pyridinyl)methyl)-1,3-dihydrofuro[3,4-c]quinoline-8-carboxamide]",534,19
"COC[C@@H](C)N(Cc1ccc(Br)nn1)C(=O)c1cc2c3c(c(N)nc2cn1)[C@@H](C)OC3 [Example 410, (3R)-4-amino-N-((6-bromo-3-pyridazinyl)methyl)-N-((2R)-1-methoxy-2-propanyl)-3-methyl-1,3-dihydrofuro[3,4-c][1,7]naphthyridine-8-carboxamide]",3260,87
"CCN(C(=O)c1cc2c(cc1F)nc(N)c1cnn(C)c12)[C@H](C)c1ccc(F)cn1 (single isomer, unassigned) [Example 875]",1420,25
"C[C@H](c1ncccc1F)N(Cc1ccc(Br)nn1)C(=O)c1cc2c3c(c(N)nc2cc1F)COC3 [Example 437, 4-amino-N-((6-bromo-3-pyridazinyl)methyl)-7-fluoro-N-((1R)-1-(3-fluoro-2-pyridinyl)ethyl)-1,3-dihydrofuro[3,4-c]quinoline-8-carboxamide]",353,31
"CC1OCc2c1c(N)nc1ccc(C(=O)N(Cc3ccc(C(F)(F)F)cn3)[C@H]3C[C@@H]3C(F)(F)F)cc21 (mixture of isomers) [Example 910, 4-amino-3-methyl-N-((1R,2R)-2-(trifluoromethyl)cyclopropyl)-N-((5-(trifluoromethyl)-2-pyridinyl)methyl)-1,3-dihydrofuro[3,4-c]quinoline-8-carboxamide and 4-amino-3-methyl-N-((1S,2S)-2-(trifluoromethyl)cyclopropyl)-N-((5-(trifluoromethyl)-2-pyridinyl)methyl)-1,3-dihydrofuro[3,4-c]quinoline-8-carboxamide]",3000,22
"C[C@H](c1ncccn1)N(Cc1ccc(C(F)(F)F)cn1)C(=O)c1cnc2nc(N)c3c(c2c1)COC3 [Example 614, 4-amino-N-((1R)-1-(2-pyrimidinyl)ethyl)-N-((5-(trifluoromethyl)-2-pyridinyl)methyl)-1,3-dihydrofuro[3,4-c][1,8]naphthyridine-8-carboxamide]",255,42
"C[C@H](c1ccc(F)cn1)N(C)C(=O)c1cc2c(cc1F)nc(N)c1cnn(C)c12 (single isomer, unassigned) [Example 873]",7320,66
"Nc1nc2cnc(C(=O)N(Cc3ccc(C(F)(F)F)nn3)CC3CC3)cc2c2c1COC2 [Example 688, 4-amino-N-(cyclopropylmethyl)-N-((6-(trifluoromethyl)-3-pyridazinyl)methyl)-1,3-dihydrofuro[3,4-c][1,7]naphthyridine-8-carboxamide]",3440,81
"CCN(C(=O)c1ccc2nc(N)c3c(c2c1)CO[C@@H]3C)[C@H](C)c1ccc(C(F)(F)F)cn1 [Example 777, (3R)-4-amino-N-ethyl-3-methyl-N-((1R)-1-(5-(trifluoromethyl)-2-pyridinyl)ethyl)-1,3-dihydrofuro[3,4-c]quinoline-8-carboxamide]",1380,25
"C[C@H]1OCc2c1c(N)nc1cnc(C(=O)N(C)Cc3ccc(C4CC4)cn3)cc21 [Example 415, (3R)-4-amino-N-((5-cyclopropyl-2-pyridinyl)methyl)-N,3-dimethyl-1,3-dihydrofuro[3,4-c][1,7]naphthyridine-8-carboxamide]",25100,449
"Nc1nc2cnc(C(=O)N(Cc3ccc(C(F)(F)F)cn3)c3cnn(C4CC4)c3)cc2c2c1COC2 [Example 690, 4-amino-N-(1-cyclopropyl-1H-pyrazol-4-yl)-N-((5-(trifluoromethyl)-2-pyridinyl)methyl)-1,3-dihydrofuro[3,4-c][1,7]naphthyridine-8-carboxamide]",4170,71
"CCN(Cc1ccc(C(F)(F)F)cn1)C(=O)c1cc2c3c(c(N)nc2nc1Cl)COC3 [Example 537, 4-amino-7-chloro-N-ethyl-N-((5-(trifluoromethyl)-2-pyridinyl)methyl)-1,3-dihydrofuro[3,4-c][1,8]naphthyridine-8-carboxamide]",5390,222
"C[C@H](c1ccc(C(F)(F)F)nn1)N(C(=O)c1cc2c(cc1Cl)nc(N)c1cnn(C)c12)C1CC1 (single isomer, unassigned) [Example 881]",370,7
"C[C@H](c1ncn(C)n1)N(Cc1ccc(C(F)F)cn1)C(=O)c1ccc2nc(N)c3c(c2c1)CO[C@@H]3C [Example 466, (3R)-4-amino-N-((5-(difluoromethyl)-2-pyridinyl)methyl)-3-methyl-N-((1R)-1-(1-methyl-1H-1,2,4-triazol-3-yl)ethyl)-1,3-dihydrofuro[3,4-c]quinoline-8-carboxamide]",217,28
"COC[C@@H](C)N(Cc1ccc(Cl)nn1)C(=O)c1cc2c3c(c(N)nc2cn1)COC3 [Example 306, 4-amino-N-((6-chloro-3-pyridazinyl)methyl)-N-((2R)-1-methoxy-2-propanyl)-1,3-dihydrofuro[3,4-c][1,7]naphthyridine-8-carboxamide]",7990,217
"CCN(Cc1ccc(C(F)(F)F)cc1)C(=O)c1ccc2nc(N)c3c(c2c1)COC3 [Example 706, 4-amino-N-ethyl-N-(4-(trifluoromethyl)benzyl)-1,3-dihydrofuro[3,4-c]quinoline-8-carboxamide]",3450,172
"C[C@H](c1ncccn1)N(Cc1cc2c(cn1)OCCC2)C(=O)c1cc2c3c(c(N)nc2cn1)COC3 [Example 686, 4-amino-N-(3,4-dihydro-2H-pyrano[2,3-c]pyridin-6-ylmethyl)-N-((1R)-1-(2-pyrimidinyl)ethyl)-1,3-dihydrofuro[3,4-c][1,7]naphthyridine-8-carboxamide]",8800,445
"N#Cc1ccc(CN(CC2CC2)C(=O)c2cc3c4c(c(N)nc3cc2Cl)COC4)nc1 [Example 474, 4-amino-7-chloro-N-((5-cyano-2-pyridinyl)methyl)-N-(cyclopropylmethyl)-1,3-dihydrofuro[3,4-c]quinoline-8-carboxamide]",1330,30
"CCN(Cc1ccc(C(F)(F)F)cn1)C(=O)c1cc2c(cn1)nc(N)c1cnn(C)c12 [Example 549, 4-amino-N-ethyl-1-methyl-N-((5-(trifluoromethyl)-2-pyridinyl)methyl)-1H-pyrazolo[4,3-c][1,7]naphthyridine-8-carboxamide]",487,20
"C[C@H](c1ncccn1)N(Cc1ccc(Cl)nn1)C(=O)c1ccc2nc(N)c3c(c2c1)COC3 [Example 676, 4-amino-N-((6-chloro-3-pyridazinyl)methyl)-N-((1R)-1-(2-pyrimidinyl)ethyl)-1,3-dihydrofuro[3,4-c]quinoline-8-carboxamide]",316,12
"C[C@H](c1ncccn1)N(Cc1ccc(Cl)cn1)C(=O)c1cnc2nc(N)c3c(c2c1)CCC3 [Example 627, 6-amino-N-((5-chloro-2-pyridinyl)methyl)-N-((1R)-1-(2-pyrimidinyl)ethyl)-8,9-dihydro-7H-cyclopenta[c][1,8]naphthyridine-2-carboxamide]",583,45
